Results on three molecules are retold here after patent US5559101A, “L-ribofuranosyl nucleosides” (priority 1994, dated 1996).

Data set [1] relates to OM-1 (colon). Nature of the data set: Radiometric growth inhibition of tumor cells, OM-1. The note with it: for IC50: Homo sapiens. The data set is classed as cell-based, human. The arrangement: % SURVIVAL TUMOR: concentration or dose not given beside the values. The text has this: (§1) CELL LINES: Eight different established human cell lines CALU (lung), COLO320 (colon), H578St (breast), HT-29 (colon), MCF-7 (breast), OM-1 (colon), SKLU (lung) and SKMES(lung), and two control cell lines (bone marrow and/or fibroblast cells) were utilized. All cell lines were obtained from the Tumor Cloning Laboratory, Institute for Drug Development, Cancer Therapy and Research Center, San Antonio, Tex. All cell lines grew as monolayers in the appropriate culture medium supplemented with heat-inactivated calf serum. All reagents were obtained from Grand Island Biological Co., Grand Island, N.Y.
(§2) The iv formulations of the compounds of the present invention were prepared with sterile buffered saline and stored at -70° C. until required for testing.
(§3) Following trypsinization, tumor cells were suspended in tissue culture medium and exposed to the antitumor agents continuously at three different concentrations: 10, 1 and 0.1 μg/ml.
(§4) RADIOMETRIC MEASUREMENT OF GROWTH INHIBITION: Growth inhibition was assessed with the BACTEC System 460 (Johnston Laboratories, Towson, Md.) after addition of the antitumor agent to the cell in the respective growth medium containing ^14 C-glucose at a final concentration of 2 μCi/ml.
(§5) Two mls of the tumor cell suspension containing radioactive glucose were seeded into sterile, disposable 15 ml vials by injection through self-sealing rubber-aluminum caps. […] The seeded vials were then incubated at 37° C. Measurement of the release of ^14 CO2 resulting from the metabolism of ^14 C-glucose were performed on days 6, 9, 12 and 15 in the BACTEC instrument. This instrument flushes the ^14 CO2 containing air out of the vials into an ionization chamber that converts dpm to growth index values. […] Each data point represents triplicate values.
(§6) All compounds were dosed on an equimilimolar basis.

Data set [2] is described as follows: In vitro survival of bone marrow control cells (radiometric BACTEC). The data set is classed as cell-based. On the set-up: concentration or dose not given beside the values.
From the text: as §1, §2, §3, §4, §5, §6

The subject of data set [3] is SKLU (lung). Nature of the data set: Radiometric growth inhibition of tumor cells, SKLU. The class given is cell-based, human. The arrangement: % SURVIVAL TUMOR: concentration or dose not given beside the values. The note with it: for IC50: Homo sapiens.
From the text: as §1, §2, §3, §4, §5, §6

For data set [4], the system named is COLO320 (colon). Nature of the data set: Radiometric growth inhibition of tumor cells, COLO320. The class given is cell-based, human. On the set-up: % SURVIVAL TUMOR: concentration or dose not given beside the values. As to conditions: for IC50: Homo sapiens, COLO 320.
From the text: as §1, §2, §3, §4, §5, §6

For data set [5], the system named is MCF-7 (breast). Nature of the data set: Radiometric growth inhibition of tumor cells, MCF-7. The data set is classed as cell-based, human. On the set-up: % SURVIVAL TUMOR: concentration or dose not given beside the values. The note with it: for IC50: Homo sapiens, MCF7; for % SURVIVAL TUMOR: continuous exposure.
From the text: as §1, §2, §3, §4, §5, §6

The subject of data set [6] is HS578T (breast). Nature of the data set: Radiometric growth inhibition of tumor cells, HS578T. As to conditions: for % SURVIVAL TUMOR: continuous exposure; for IC50: Homo sapiens, Hs-578T. The data set is classed as cell-based, human.
From the text: as §1, §2, §3, §4, §5, §6

The subject of data set [7] is HT29 (colon). Nature of the data set: Radiometric growth inhibition of tumor cells, HT29. The arrangement: % SURVIVAL TUMOR: concentration or dose not given beside the values. The class given is cell-based, human.
From the text: as §1, §2, §3, §4, §5, §6

Data set [8] deals with CALU (lung). As to the kind of experiment: Radiometric growth inhibition of tumor cells, CALU. The arrangement: % SURVIVAL TUMOR: concentration or dose not given beside the values. The data set is classed as cell-based, human.
From the text: as §1, §2, §3, §4, §5, §6

In data set [9] the test system is SKMES (lung). Nature of the data set: Radiometric growth inhibition of tumor cells, SKMES. The class given is cell-based, human.
From the text: as §1, with “N.Y. […]” for “N.Y.”
RADIOMETRIC MEASUREMENT OF GROWTH INHIBITION: Growth inhibition was assessed with the BACTEC System 460 (Johnston Laboratories, Towson, Md.) after addition of the antitumor agent to the cell in the respective growth medium containing ^14 C-glucose at a final concentration of 2 μCi/ml. […]
Two mls of the tumor cell suspension containing radioactive glucose were seeded into sterile, disposable 15 ml vials by injection through self-sealing rubber-aluminum caps. […] Chemotherapy sensitivity was calculated by comparing the growth index values of drug-treated vials to that observed in control vials. […]

Where [10] appears, read: OM-1, concentration required to kill 50%, read-out: IC 50.
Where [11] appears, read: SKLU, concentration required to kill 50%, read-out: IC 50.
Setting [12] is: HS578T, concentration required to kill 50%, read-out: IC 50.

In brackets after ≈: the same amount, converted by molar mass. Like-named read-outs stand apart in the source and are kept apart here.

For `O=c1[nH]cnc2c1ncn2[C@H]1O[C@@H](CO)[C@H](O)[C@@H]1O` [β-:-ribofuranosyl hypoxanthine, 9-β-L-Ribofuranosylhypoxanthine], the IC50 was 82.7 µg/mL (≈ 308 µM) in [1] (setting [10]); 48.1 µg/mL (≈ 179 µM) in data set [3] (setting [11]); 17.9 µg/mL (≈ 66.7 µM) in data set [4] (COLO320, concentration required to kill 50%, read-out: IC 50); 38.1 µg/mL (≈ 142 µM) in data set [5] (MCF-7, concentration required to kill 50%, read-out: IC 50); more than 10 µg/mL in [6] (setting [12]). Moreover, the “% SURVIVAL TUMOR” value in data set [1] (OM-1, continuous exposure) came out at 87.3%; in data set [3] (SKLU, continuous exposure) it was 82.5%; in data set [4] (COLO320, continuous exposure), 68.2%; in data set [5] (MCF-7), 96.8%; in data set [6] (HS578T) it was 93.4%. Further, the viability in [2] (bone marrow control cells, continuous exposure, read-out: % SURVIVAL BONE MARROW) amounted to 118%.
In the case of `O=c1[nH]cc(F)c(=O)[nH]1` [Example 5-FU, 5-fluorouracil, reference compound], the IC50 is 1.47 µg/mL (≈ 11.3 µM) in [1]; 1.05 µg/mL (≈ 8.07 µM) in data set [3]; less than 0.6 µg/mL in data set [4]; less than 0.6 µg/mL in [5]; 0.613 µg/mL (≈ 4.71 µM) in data set [7] (Homo sapiens, HT-29); less than 0.6 µg/mL in [8] (Homo sapiens). Also, the IC50 in [6] was less than 0.6 µg/mL; in data set [9] (Homo sapiens, concentration required to kill 50%), less than 0.6 µg/mL. Also, the “% SURVIVAL TUMOR” value in data set [1] (human, om-1 colon tumor cells) worked out at 1.7%; in data set [3] (human, sklu lung tumor cells), 5.0%; in [4] (human, colo320 colon tumor cells), 1.0%; in data set [5] (MCF-7), 0.8%; in [7] (HT29, continuous exposure), 1.2%; in data set [8] (CALU, continuous exposure), 2.2%. For the same molecule, the results for the “% SURVIVAL TUMOR” value in data set [6] (HS578T) and in data set [9] (continuous exposure) were 43.5% and 11.2%, respectively. The viability in data set [2] (bone marrow cells) is 1.9%.
With `Nc1nc(S)c2ncn([C@H]3O[C@@H](CO)[C@H](O)[C@@H]3O)c2n1` [β-L-ribofuranosyl-6-thioguanine, 9-β-L-Ribofuranosyl-6-thioguanine], the values for the IC50 in data set [1] (setting [10]), in [3] (setting [11]) and in data set [6] (setting [12]) were 42.7 µg/mL (≈ 143 µM), 8.7 µg/mL (≈ 29.1 µM) and 17.1 µg/mL (≈ 57.1 µM), respectively. In addition, the “% SURVIVAL TUMOR” value in data set [1] (human, om-1 colon tumor cells) is on record as 83.1%; in data set [3] (human, sklu lung tumor cells) it was 45.1%; in data set [6] (HS578T), 66.6%. In addition, the viability in data set [2] (bone marrow cells) came out at 97.4%.
